The values below come from patent US7848888B2, “Method for identification of biologically active agents” (Vitruvean LLC, priority 2002, dated 2010).

One experiment deals with flies. Particulars: administered orally to flies; cited from earlier work.
In the next experiment the test system is wild-type flies. Kind of experiment: Motion tracking with wild-type flies. Particulars: flies fed 0.1M or 0.05M, compared to controls; FIG. 19. The experiment is classed as in vivo, Drosophila. The source says: In the present exemplary application, to capture a movie of the movement of flies within specimen container 104, robot 114 grabs a specimen container 104 and positions it in front of camera 124. However, before positioning specimen container 104 in front of camera 124, robot 114 first raises specimen container 104 above a distance, such as about 2 centimeters, above base plate 106, then releases specimen container 104, which forces the flies within specimen container 104 to fall down to the bottom of specimen container 104. Robot 114 then grabs specimen container 104 again and positions it to be filmed by camera 124. In one exemplary embodiment, camera 124 captures about 40 consecutive frames at a frame rate of about 10 frames per second. It should be noted, however, that the number of frames captured and the frame rate used can vary. Additionally, the step of dropping specimen container 104 prior to filming can be omitted.
“Movement trait data” as used herein refers to the measurements made of one or more movement traits. Examples of “movement trait data” measurements include, but are not limited to X-pos, X-speed, speed, turning, stumbling, size, T-count, P-count, T-length, Cross150, Cross250, and F-count. Descriptions of these particular measurements are provided below. • X-Pos: The X-Pos score is calculated by concatenating the lists of x-positions for all trajectories and then computing the average of all values in the concatenated list. • X-Speed: The X-Speed score is calculated by first computing the lengths of the x-components of the speed vectors by taking the absolute difference in x-positions for subsequent frames. The resulting lists of x-speeds for all trajectories are then concatenated and the average x-speed for the concatenated list is computed. • Speed: The Speed score is calculated in the same way as the X-Speed score, but instead of only using the length of the x-component of the speed vector, the length of the whole vector is used. […]

In experiment [1] the test system is Drosophila expressing a mutant form of human Huntington (HD). In words: Motion tracking with Drosophila model of Huntington disease. In kind it is in vivo. Particulars: HD model with drug vs HD model without drug. Here is the method: “Movement trait data” as used herein refers to the measurements made of one or more movement traits. Examples of “movement trait data” measurements include, but are not limited to X-pos, X-speed, speed, turning, stumbling, size, T-count, P-count, T-length, Cross150, Cross250, and F-count. Descriptions of these particular measurements are provided below. • X-Pos: The X-Pos score is calculated by concatenating the lists of x-positions for all trajectories and then computing the average of all values in the concatenated list. • X-Speed: The X-Speed score is calculated by first computing the lengths of the x-components of the speed vectors by taking the absolute difference in x-positions for subsequent frames. The resulting lists of x-speeds for all trajectories are then concatenated and the average x-speed for the concatenated list is computed. • Speed: The Speed score is calculated in the same way as the X-Speed score, but instead of only using the length of the x-component of the speed vector, the length of the whole vector is used. That is, [length]=square root of ([x-length]^2+[y-length]^2). • Turning: The Turning score is calculated in the same way as the Speed score, but instead of using the length of the speed vector, the absolute angle between the current speed vector and the previous one is used, giving a value between 0 and 90 degrees. • Stumbling: The Stumbling score is calculated in the same way as the Speed score, but instead of using the length of the speed vector, the absolute angle between the current speed vector and the direction of body orientation is used, giving a value between 0 and 90 degrees. • Size: The Size score is calculated in the same way as the Speed score, but instead of using the length of the speed vector, the size of the detected fly is used. • T-Count: The T-Count score is the number of trajectories detected in the movie. • P-Count: The P-Count score is the total number of points in the movie (i.e., the number of points in each trajectory, summed over all trajectories in the movie). • T-Length: The T-Length score is the sum of the lengths of all speed vectors in the movie, giving the total length all flies in the movie have walked. • Cross150: The Cross150 score is the number of trajectories that either crossed the line at x=150 in the negative x-direction (from bottom to top of the vial) during the movie, or that were already above that line at the start of the movie. […] In other words this score measures the number of detected flies that either managed to hold on to the tube or that managed to climb above the x=150 line within the length of the movie. • Cross250: The Cross250 score is equivalent to the Cross150 score, but uses a line at x=250 instead. • F-Count: The F-Count score counts the number of detected flies in each individual frame, and then takes the maximum of these values over all frames. […]
Drosophila expressing a mutant form of human Huntington (HD) have a functional deficit that is quantifiable, reproducible, and is suitable for automated high-throughput screening. Drosophila (or specimen) movements can be analyzed for various characteristics and/or traits. For example, statistics on the movements of the specimens, such as the x and y travel distance, path length, speed, turning, and stumbling, can be calculated. […]
Differences between the HD model+/−drug (HDAC inhibitor, TSA) and wild type (control)+/−drug (TSA) can clearly be detected using the motion tracking software. […]

For `O=C1NC(=O)C(c2ccccc2)(c2ccccc2)N1` [Phenytoin], the “seizure and mean recovery times following seizure” value with flies was “reduce”.
As for `CC1(C)O[C@@H]2[C@@H](CO[C@@]3(COS(N)(=O)=O)OC(C)(C)O[C@@H]23)O1` [Topiramate], the “seizure and mean recovery times following seizure” value in the experiment with flies is “reduce”.
For the compound `[Cl-].[Li+]` [LiCl, Lithium Chloride], in the experiment on wild-type flies, the incidence of stumbling entry is on record as “increased incidence”, the incidence of turning entry is reported as “increased incidence” and the speed result is given as “significant reduction”.
For `NCC1(CC(=O)O)CCCCC1` [Gabapentin], the “seizure and mean recovery times following seizure” value in the experiment on flies is “reduce”.
Turning to `CC(/C=C/C(=O)NO)=C\[C@@H](C)C(=O)c1ccc(N(C)C)cc1` [TSA], the Speed score result in experiment [1] (p-values, FIG. 21B) was “do not yield significant values”. Further, the Turning score result in experiment [1] (p-values, FIG. 21D) was “do not yield significant values”. In addition, the Stumbling score result in experiment [1] (p-values, FIG. 21F) is “do not yield significant values”. In experiment [1] (p-values, FIG. 21H), the T-Length score entry is given as “best highlight the therapeutic effect”. For the same compound, the “motor performance, Cross150 score (climbing ability)” value in experiment [1] (FIG. 20, 21J) is given as “restore climbing ability for HD flies to almost the same level as for wt flies”.
